Test results reported in US20240067651A1 (Biohaven Therapeutics Ltd., priority 2019, published 2024).

Key:
[1] = Caco-2 Permeability Assay; type: in vitro ADME, human; conditions: human
How it was run: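 Caco-2 monolayers cultured 21 days (TEER >600 […]); test article at 10 μM in HBSS/HEPES pH 7.4 transport medium, dosed apical or basolateral, ±Pgp inhibitor. Incubated 90 min at 37 °C; both compartments quantified by LC-MS/MS. Papp (A→B, B→A), efflux ratio and % recovery calculated.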

[2] = Stability in Simulated Gastric Fluid (SGF); type: in vitro ADME; parameters: key: % parent compound remaining relative to 0-minute sample
How it was run: (§1)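 Stability was tested at 37° C in pepsin-supplemented gastric fluid, pH 1.2, and pancreatin-supplemented intestinal fluid, pH 6.8, using 2 μg/mL final compound over 0–60 minutes. Remaining parent was quantified by LC-MS/MS and expressed as a percentage of time zero.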

[3] = Stability in Simulated Intestinal Fluid (SIF); type: in vitro ADME; parameters: key: % parent compound remaining relative to 0-minute sample
How it was run: as §1

Plasma Stability = type: in vitro ADME, human
How it was run: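 Compounds incubated at 1 μM in fresh human plasma for 1 hour at 37° C, then protein-precipitated with acetonitrile/formic acid containing internal standard. Remaining parent measured by LC-MS/MS in triplicate, expressed as percent of control remaining.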

[4] = Caco-2, pH 7.4, donor 10 μM, 90 minutes, 37° C., direction not given
[5] = % remaining at 1 h, SGF with pepsin pH 1.2, 2 μg/mL, 37° C.
[6] = % remaining at 1 h, SIF with pancreatin pH 6.8, 2 μg/mL, 37° C.
[7] = % remaining at 1 h, human plasma, 1 μM, 37° C.
[8] = Caco-2, pH 7.4, Caco-2 monolayer, the 15th table
[9] = % remaining at 1 h in simulated gastric fluid, the 15th table
[10] = % remaining at 1 h in simulated intestinal fluid, the 15th table
[11] = % remaining at 1 h in human plasma, the 15th table
[12] = bare number, unit or time not given, the 15th table Examples 204-207
[13] = Caco-2, pH 7.4, Caco-2 monolayer, the 17th table
[14] = % remaining at 1 h in simulated gastric fluid, the 17th table
[15] = % remaining at 1 h in simulated intestinal fluid, the 17th table
[16] = % remaining at 1 h in human plasma, the 17th table

SMILES | Papp at 90 min, 10 µM [1, 8] | SGF [2, 9] | SIF [3, 10] | human Plasma stability (Plasma Stability; [11]) | other results
CC(C)OCCn1c(=S)[nH]c(=O)c2c1ccn2COC(N)=O [Example 181, Carbamic acid 1-(2-isopropoxy-ethyl)-4-oxo-2-thioxo-1,2,3,4-tetrahydro-pyrrolo[3,2-d]pyrimidin-5-ylmethyl ester] |  |  |  |  | Papp at 90 min, 10 µM [1, 4]: 21.8 ×10⁻⁶ cm/s; SGF [2, 5]: 82%; SIF [3, 6]: 97%; human Plasma stability (Plasma Stability; [7]): 99%
CCCNC(=O)OCSc1nc(=O)c2c(ccn2COC(=O)NCCC)n1CCOC(C)C [Example 183] | 4.59 ×10⁻⁶ cm/s | 94% @ 1 h | 99% @ 1 h | 92% @ 1 h | 
CC(C)CNC(=O)OCSc1nc(=O)c2[nH]ccc2n1CCOC(C)C [Example 186] | 7.23 ×10⁻⁶ cm/s | 86% @ 1 h | 100% @ 1 h | 98% @ 1 h | 
CC(C)CNC(=O)OCSc1nc(=O)c2c(ccn2C(=O)NCC(C)C)n1CCOC(C)C [Example 187] | 33.1 ×10⁻⁶ cm/s | 97% @ 1 h | 97% @ 1 h | 96% @ 1 h | 
CC(C)CNC(=O)OCSc1nc(=O)c2c(ccn2COC(=O)NCC(C)C)n1CCOC(C)C [Example 188] | 11.7 ×10⁻⁶ cm/s | 98% @ 1 h | 97% @ 1 h | 99% @ 1 h | 
CCN(C(=O)OCSc1nc(=O)c2c(ccn2COC(=O)N(CC)C(C)C)n1CCOC(C)C)C(C)C [Example 189] | 30.6 ×10⁻⁶ cm/s | 99% @ 1 h | 97% @ 1 h | 98% @ 1 h | 
CCN(C(=O)OCSc1nc(=O)c2[nH]ccc2n1CCOC(C)C)C(C)C [Example 190] | 13.8 ×10⁻⁶ cm/s | 99% @ 1 h | 98% @ 1 h | 99% @ 1 h | 
CC(C)OCCn1c(=S)[nH]c(=O)c2c1ccn2C(=O)OC(C)(C)C [Example 191] | 1.08 ×10⁻⁶ cm/s | 15% @ 1 h | 82% @ 1 h | 16% @ 1 h | 
CC(C)OCCn1c(SCOC(=O)NCc2ccccc2)nc(=O)c2[nH]ccc21 [Example 192] | 3.84 ×10⁻⁶ cm/s | 100% remaining | 50% remaining | 97% remaining | 
CC(C)OCCn1c(SCOC(=O)NCc2ccccc2)nc(=O)c2c1ccn2C(=O)NCc1ccccc1 [Example 193] | 31.6 ×10⁻⁶ cm/s | 98% remaining | 57% remaining | 95% remaining | 
CCCCNC(=O)OCSc1nc(=O)c2c(ccn2C(=O)NCCCC)n1CCOC(C)C [Example 194] | 42.9 ×10⁻⁶ cm/s | 99% remaining | 59% remaining | 97% remaining | 
CC(C)NC(=O)OCSc1nc(=O)c2c(ccn2C(=O)NC(C)C)n1CCOC(C)C [Example 195] | 30 ×10⁻⁶ cm/s | 100% remaining | 99% remaining | 97% remaining | 
CC(C)NC(=O)OCSc1nc(=O)c2[nH]ccc2n1CCOC(C)C [Example 196] | 19.5 ×10⁻⁶ cm/s | 99% remaining | 98% remaining | 99% remaining | 
COC(=O)OCSc1nc(=O)c2c(ccn2COC(=O)OC)n1CCOC(C)C [Example 198] | 11.4 ×10⁻⁶ cm/s | 79% remaining | 74% remaining | 0% remaining | 
COC(=O)OCSc1nc(=O)c2c(ccn2CSc2nc(=O)c3[nH]ccc3n2CCOC(C)C)n1CCOC(C)C [Example 199] | 5.54 ×10⁻⁶ cm/s | 47% remaining | 79% remaining | 46% remaining | 
COC(=O)OCSc1nc(=O)c2[nH]ccc2n1CCOC(C)C [Example 200] | 9.76 ×10⁻⁶ cm/s | 100% remaining | 75% remaining | 2% remaining | 

SMILES | Papp at 90 min, 10 µM [1, 8] | SGF [2, 9] | SIF [3, 10] | human Plasma stability (Plasma Stability; [11]) | other results
CC(C)OCCn1c(SCOC(=O)OC(C)C)nc(=O)c2[nH]ccc21 [Example 203] | 13.4 ×10⁻⁶ cm/s | 99% remaining | 63% remaining | 1% remaining | 
CCCCOC(=O)OCSc1nc(=O)c2[nH]ccc2n1CCOC(C)C [Example 204] | 6.35 ×10⁻⁶ cm/s |  |  | 1% remaining | SGF [2, 12]: 85; SIF [3, 12]: 2
CCCCCCCCOC(=O)OCSc1nc(=O)c2[nH]ccc2n1CCOC(C)C [Example 206] | 0.138 ×10⁻⁶ cm/s |  |  | 99% remaining | SGF [2, 12]: 91; SIF [3, 12]: 1
CC(C)OCCn1c(SC(C)OC(=O)N(C(C)C)C(C)C)nc(=O)c2[nH]ccc21 (centres unmarked) [Example 208, 1-({4-Oxo-1-[2-(propan-2-yloxy)ethyl]-1H,4H,5H-pyrrolo[3,2-d]pyrimidin-2-yl}sulfanyl)ethyl N,N-bis(propan-2-yl)carbamate] |  |  |  |  | Papp at 90 min, 10 µM [1, 4]: 18.3 ×10⁻⁶ cm/s; SGF [2, 5]: 1%; SIF [3, 6]: 93%; human Plasma stability (Plasma Stability; [7]): 98%
CC(C)OCCn1c(SCOC(=O)N(C)c2ccccc2)nc(=O)c2[nH]ccc21 [Example 209, ({4-oxo-1-[2-(propan-2-yloxy)ethyl]-1H,4H,5H-pyrrolo[3,2-d]pyrimidin-2-yl}sulfanyl)methyl N-methyl-N-phenylcarbamate] |  |  |  |  | Papp at 90 min, 10 µM [1, 4]: 16.1 ×10⁻⁶ cm/s; SGF [2, 5]: 99% remaining; SIF [3, 6]: 99% remaining; human Plasma stability (Plasma Stability; [7]): 97% remaining
CC(C)OCCn1c(SCOC(=O)N(C)c2cccc(F)c2)nc(=O)c2[nH]ccc21 [Example 210, ({4-oxo-1-[2-(propan-2-yloxy)ethyl]-1H,4H,5H-pyrrolo[3,2-d]pyrimidin-2-yl}sulfanyl)methyl N-(3-fluorophenyl)-N-methylcarbamate] |  |  |  |  | Papp at 90 min, 10 µM [1, 4]: 18.3 ×10⁻⁶ cm/s; SGF [2, 5]: 100% remaining; SIF [3, 6]: 97% remaining; human Plasma stability (Plasma Stability; [7]): 97% remaining
CC(C)OCCn1c(SCOC(=O)N(C)c2ccc(F)cc2)nc(=O)c2[nH]ccc21 [Example 211, ({4-oxo-1-[2-(propan-2-yloxy)ethyl]-1H,4H,5H-pyrrolo[3,2-d]pyrimidin-2-yl}sulfanyl)methyl N-(4-fluorophenyl)-N-methylcarbamate] |  |  |  |  | Papp at 90 min, 10 µM [1, 4]: 20 ×10⁻⁶ cm/s; SGF [2, 5]: 100% remaining; SIF [3, 6]: 96% remaining; human Plasma stability (Plasma Stability; [7]): 99% remaining
CC(C)OCCn1c(SC(C)OC(=O)N(C)c2ncccc2COC(=O)CN(C)C(=O)OC(C)(C)C)nc(=O)c2[nH]ccc21 (centres unmarked) [Example 212, (tert-Butoxycarbonyl-methyl-amino)-acetic acid 2-({1-[1-(2-isopropoxy-ethyl)-4-oxo-4,5-dihydro-1H-pyrrolo[3,2-d]pyrimidin-2-ylsulfanyl]-ethoxycarbonyl}-methyl-amino)-pyridin-3-ylmethyl ester] |  |  |  |  | Papp at 90 min, 10 µM [1, 4]: 0.87 ×10⁻⁶ cm/s; SGF [2, 5]: 89%; SIF [3, 6]: 97%; human Plasma stability (Plasma Stability; [7]): 97%
CCCCCCOC(=O)OCn1ccc2c1c(=O)nc(S)n2CCOC(C)C [Example 213] |  |  |  |  | Papp at 90 min, 10 µM [1, 13]: 3.03 ×10⁻⁶ cm/s; SGF [2, 14]: 76% remaining; SIF [3, 15]: 1% remaining; human Plasma stability (Plasma Stability; [16]): 44% remaining
CCCCCCOC(=O)OCSc1nc(=O)c2c(ccn2COC(=O)OCCCCCC)n1CCOC(C)C [Example 214] |  |  |  |  | Papp at 90 min, 10 µM [1, 13]: 1.63 ×10⁻⁶ cm/s; SGF [2, 14]: 80% remaining; SIF [3, 15]: 2% remaining; human Plasma stability (Plasma Stability; [16]): 77% remaining
CCCCCCOC(=O)OCn1c(=O)c2c(ccn2COC(=O)OCCCCCC)n(CCOC(C)C)c1=S [Example 215] |  |  |  |  | Papp at 90 min, 10 µM [1, 13]: 0.214 ×10⁻⁶ cm/s; SGF [2, 14]: 94% remaining; SIF [3, 15]: 1% remaining; human Plasma stability (Plasma Stability; [16]): 88% remaining
CCCCCOC(=O)OCn1ccc2c1c(=O)nc(S)n2CCOC(C)C [Example 216] |  |  |  |  | Papp at 90 min, 10 µM [1, 13]: 4.59 ×10⁻⁶ cm/s; SGF [2, 14]: 91% remaining; SIF [3, 15]: 1% remaining; human Plasma stability (Plasma Stability; [16]): 1% remaining
CCCCCOC(=O)OCSc1nc(=O)c2c(ccn2COC(=O)OCCCCC)n1CCOC(C)C [Example 217] |  |  |  |  | Papp at 90 min, 10 µM [1, 13]: 5.32 ×10⁻⁶ cm/s; SGF [2, 14]: 88% remaining; SIF [3, 15]: 1% remaining; human Plasma stability (Plasma Stability; [16]): 5% remaining
CCCCCOC(=O)OCn1c(=O)c2c(ccn2COC(=O)OCCCCC)n(CCOC(C)C)c1=S [Example 218] |  |  |  |  | Papp at 90 min, 10 µM [1, 13]: 0.65 ×10⁻⁶ cm/s; SGF [2, 14]: 100% remaining; SIF [3, 15]: 2% remaining; human Plasma stability (Plasma Stability; [16]): 74% remaining
CCCCCCCOC(=O)OCn1ccc2c1c(=O)nc(S)n2CCOC(C)C [Example 219] |  |  |  |  | Papp at 90 min, 10 µM [1, 13]: 0.847 ×10⁻⁶ cm/s; SGF [2, 14]: 98% remaining; SIF [3, 15]: 23% remaining; human Plasma stability (Plasma Stability; [16]): 21% remaining
CC(=O)OCc1ccccc1N(C)C(=O)OC(C)n1ccc2c1c(=O)nc(S)n2CCOC(C)C (centres unmarked) [Example 221] |  |  |  |  | Papp at 90 min, 10 µM [1, 13]: 2.54 ×10⁻⁶ cm/s; SGF [2, 14]: 67% remaining; SIF [3, 15]: 68% remaining; human Plasma stability (Plasma Stability; [16]): 94% remaining
